Series [1] deals with Erwinia amylovora. In words: Example 5 in vitro agar well inhibition of Erwinia amylovora. In kind it is cell-based. The note with it: LBA plates, 25° C., 72 hours; for bacterial inhibition zone (diameter): 1 cm center well. As to the method:
Virgin Luria-Bertani agar (LBA) plates were inoculated in triplicate each with 1 mL of concentrated Erwinia amylovora suspension by aseptically spreading the bacteria uniformly onto the agar surfaces. A center well 1 cm in diameter was punched into the agar of each plate. Test products were added dropwise into each of these center wells until the liquid level just reached the agar surface (normally 5-7 drops were required). Plates were incubated at 25° C. for 72 hours then observed for evidence of bacterial growth inhibition.
Treatment List • 1. NEO-BOOST at 3.6 g/L. • 2. FireLine® [oxytetracycline hydrochloride 17% w/w] at 1.2 g/L • 3. FireWall® [streptomycin sulfate 17% w/w] at 0.6 g/L • 4. FireLine® at 1.2 g/L+FireWall® at 0.6 g/L • 5. NEO-BOOST at 3.6 g/L+FireLine® at 1.2 g/L • 6. NEO-BOOST at 3.6 g/L+FireWall® at 0.6 g/L • 7. NEO-BOOST at 3.6 g/L+FireLine® at 1.2 g/L+FireWall® at 0.6 g/L 8. Water.

Series [2] in a line: Example 4 HPLC compatibility: degradation of azoxystrobin by NEO-BOOST 18/18. In kind it is physicochemical. The note with it: NEO-BOOST 18/18 at 3.6 g/L combined with 0.5 g/L azoxystrobin as Quadris. As to the method:
NEO-BOOST 18/18 at 3.6 g/L was combined with 0.5 g/L azoxystrobin in the form of Quadris®. In addition, several controls were prepared consisting of respectively: 0.5 g/L azoxystrobin in the form of Quadris®, and NEO-BOOST 18/18 at 3.6 g/L. All of the above were then converted or rendered into a form that could be analyzed by high-performance liquid chromatography (HPLC). The HPLC column was first calibrated with the reference standard azoxystrobin and then the samples were injected into the column at predetermined intervals to see whether the Quadris® was degraded at all by the NEO-BOOST 18/18.

Series [3] is described as follows: Example 8 amount of peracetic acid in solution over time (NEO-PURE Liquid with/without Quadris). The note with it: diluted NEO-PURE Liquid. In kind it is physicochemical. An excerpt: Another liquid organic formulation based on pre-formed peracetic acid, called NEO-PURE™ Liquid, was formulated to study its compatibility with single-site fungicides such as azoles and strobilurins.
The above formulation contains a minimum of 5% w/w active peracetic acid and 20% w/w hydrogen peroxide.

Structures are written as SMILES. Where a name gives a salt, the structure may show the parent alone.

Turning to `[H]/N=C(/N)N[C@H]1[C@H](O)[C@@H](O)[C@H](O[C@@H]2O[C@@H](C)[C@](O)(C=O)[C@H]2O[C@@H]2O[C@@H](CO)[C@H](O)[C@@H](O)[C@@H]2NC)[C@@H](N/C(N)=N\[H])[C@@H]1O` [streptomycin, streptomycin sulfate], in series [1], the “bacterial inhibition zone (diameter)” value is on record as “about 3 cm” and the “depth of inhibition through the bacterial lawn to the agar surface” value is recorded as “penetrated all the way down to the agar surface”.

`CO/C=C(/C(=O)OC)c1ccccc1Oc1cc(Oc2ccccc2C#N)ncn1` [azoxystrobin, methyl (E)-2-{2-[6-(2-cyanophenoxy)pyrimidin-4-yloxy]phenyl}-3-methoxyacrylate]: the “degradation of azoxystrobin by NEO-BOOST (HPLC)” value in series [2] is recorded as “did not degrade azoxystrobin at all”. The “decomposition of peracetic acid by the presence of azoxystrobin over time” value in series [3] is listed as “not decomposed”.

Consider `CN(C)[C@@H]1C(=O)C(C(N)=O)=C(O)[C@@]2(O)C(=O)C3=C(O)c4c(O)cccc4[C@@](C)(O)[C@H]3[C@H](O)[C@@H]12.Cl` [Oxytetracycline, oxytetracycline hydrochloride], for which, in series [1], the “bacterial inhibition zone (diameter)” value was “about 3 cm” and the “depth of inhibition through the bacterial lawn to the agar surface” value is reported as “penetrated all the way down to the agar surface”.

Source of the values: patent publication US10136642B2, “Composition of peracetic acid and at least one organic fungicide for the control and/or the treatment of diseases associated with the presence of pathogens, and method, use and kit involving said composition” (priority 2015, dated 2018).
